Experimental data published in patent US20160038482A1 (CHANRX CORPORATION, priority 2013, published 2016).
Where two headings read alike, the source gives them in different places.

Experiments:
[1] = healthy subjects, cited from earlier work
[2] = Example 1: plasma concentrations of vanoxerine and metabolites after a 300 mg dose; assay type: in vivo, human; conditions: low concentration group, any time point
Method: Each patient gave samples before administration of their dose, and then again at nine further time points, 30 minutes after administration, 1, 2, 3, 4, 6, 8, 12, and 24 hours post administration.

[3] = Example 4: daily doses for 14 days in healthy patients; assay type: in vivo, human
Method: A standardized meal was served 15 minutes prior to each dosing.

[4] = multiple daily dosing: hemodynamic effects; assay type: in vivo, human
Excerpt: However, control and prevention of events of cardiac arrhythmia are important to these patients to prevent future re-occurrences and the deleterious effects and morbidity.

[5] = tested on: recent onset symptomatic AF/AFL; assay: Example 6: conversion of recent onset AF/AFL, placebo-controlled double-blind; assay type: in vivo, human; conditions: for Conversion of Atrial Flutter, Conversion, %: pure atrial flutter N=4, any time within 24 hours; for conversion: all doses
Method: The vanoxerine or identical appearing placebo was randomly assigned and administered in a double-blinded fashion. Definition of “pure” atrial flutter: only Atrial Flutter (no AF) seen at -30, -15, and 0 time points. Conversion at any time within 24 hours.

[6] = pharmacokinetic parameters from tests in dogs; assay type: in vivo; conditions: dog, plasma
Excerpt: Vanoxerine is primarily eliminated from the body in urine, bile, and feces. Indeed, a substantial amount of the drug is expelled, unabsorbed into the feces. […] However, the long half-life of the drug may actually be utilized to minimize the continuous or regular dosing of the drug.

[7] = Example 5: daily doses for 7 days; assay type: in vivo, human
cardiac arrhythmia = assay type: in vivo, human; conditions: second patient, supraventricular tachycardia, 2 x 200 mg, after first dose
[8] = Example 6: adverse events; assay type: in vivo, human
Excerpt: The vanoxerine or identical appearing placebo was randomly assigned and administered in a double-blinded fashion.

[9] = Example 3: daily doses for 11 consecutive days, PK and hemodynamics; assay type: in vivo, human; conditions: for half-life / Cmax: human, plasma, 11 days; for half-life: read-out: PK Data (Mean +/− SD) T1/2 (converted); for Cmax: read-out: PK Data (Mean +/− SD) CMax

plasma levels (highest reached) [2]: ~40 ng/mL
time to steady state serum levels ([3]; 25, 75, and 125 mg daily for 14 days): 9 to 11 days
Tmax ([6]; oral): ~3 h
bioavailability ([6]; oral, read-out: systemic bioavailability): 23%
half-life ([6]; read-out: T1/2 (elimination from the plasma) (converted)): 22 h
time to steady state levels ([7]; 50, 100, and 150 mg daily, all patients): within one week
plasma levels detectability ([9]; 25 mg daily): not detectable after 8 hours
plasma levels detectability ([9]; 50, 75, and 100 mg daily): detectable at 24 hours
time to steady state ([9]; 50, 75, and 100 mg daily): ≤ 8 days
PK linearity ([9]; across 50, 75 and 100 mg doses): linear and dose proportional
half-life ([9]; 50 mg daily): 49.4 h
Cmax ([9]; 75 mg daily): 27.4 ng/mL
half-life ([9]; 75 mg daily): 52.5 h
Cmax ([9]; 100 mg daily): 40.2 ng/mL
half-life ([9]; 100 mg daily): 15.4 h
Cmax, ss, and AUC0-24ss inter-subject variability ([9]; steady state): 55-85%
half-life of the drug ([9]; when daily doses are given): increased half-life
Structure (SMILES): Fc1ccc(C(OCCN2CCN(CCCc3ccccc3)CC2)c2ccc(F)cc2)cc1 [Vanoxerine, 1-[2-[bis(4-fluorophenyl)methoxy]ethyl]-4-(3-phenylpropyl)piperazine]
side-effects ([1]; daily repetitive dose of 50 mg): no side-effects should be expected
side-effects ([1]; higher doses): concentration difficulties, increase systolic blood pressure, asthenia, and a feeling of drug influence
adverse events ([3]; 25, 75, and 125 mg daily for 14 days, healthy patients, after standardized meal): No significant adverse events
steady state serum levels, dose proportionality ([3]; higher doses compared with the lower doses): disproportionately and statistically greater levels at higher doses
heart rate and systolic blood pressure ([4]; daily use over 7, 10, and 14 days, 75, 100, 125, and 150 mg a day): increased heart rate and systolic blood pressure
heart rate and systolic blood pressure ([4]; multiple dosing, several subjects): dose-related increases in heart rate and systolic blood pressure
Percent conversion ([5]; 200 mg (22), 0-4 hr): 18%
Percent conversion ([5]; 200 mg (22), 0-8 hr): 45%
Percent conversion ([5]; 200 mg (22), 0-24 hr): 59%
improvement of conversion (percent increase in conversion over placebo) ([5]; 200 mg, 0-4 hours): 38%
improvement of conversion (percent increase in conversion over placebo) ([5]; 200 mg, 0-8 hours): 96%
improvement of conversion (percent increase in conversion over placebo) ([5]; 200 mg, 0-24 hours): 55%
Conversion of Atrial Flutter, Conversion, % ([5]; 200 mg): 50%
Percent conversion ([5]; 300 mg (25), 0-4 hr): 40%
Percent conversion ([5]; 300 mg (25), 0-8 hr): 52%
Percent conversion ([5]; 300 mg (25), 0-24 hr): 64%
improvement of conversion (percent increase in conversion over placebo) ([5]; 300 mg, 0-4 hours): 207%
improvement of conversion (percent increase in conversion over placebo) ([5]; 300 mg, 0-8 hours): 126%
improvement of conversion (percent increase in conversion over placebo) ([5]; 300 mg, 0-24 hours): 68%
Conversion of Atrial Flutter, Conversion, % ([5]; 300 mg): 75%
Percent conversion ([5]; 400 mg (25), 0-4 hr): 52%
Percent conversion ([5]; 400 mg (25), 0-8 hr): 76%
Percent conversion ([5]; 400 mg (25), 0-24 hr): 84%
improvement of conversion (percent increase in conversion over placebo) ([5]; 400 mg, 0-4 hours): 300%
improvement of conversion (percent increase in conversion over placebo) ([5]; 400 mg, 0-8 hours): 230%
improvement of conversion (percent increase in conversion over placebo) ([5]; 400 mg, 0-24 hours): 121%
Conversion of Atrial Flutter, Conversion, % ([5]; 400 mg): 75%
conversion ([5]; at 12 hours): greater than 50%
conversion ([5]; at about 7 hours): greater than 40%
conversion ([5]; at about 16 hours): ~60%
conversion to sinus rhythm of recent onset symptomatic AF/AFL, dose dependence ([5]; doses of 200, 300 and 400 mg): highly statistically significant dose dependent increase
systolic blood pressure and heart rate ([7]; 100 mg daily for 7 days): increases in systolic blood pressure and heart rate were seen
systolic blood pressure and heart rate ([7]; 150 mg daily for 7 days): increases in systolic blood pressure and in heart rate
time of conversion to normal sinus rhythm (cardiac arrhythmia): about 6 hours
Adverse events: number of AEs reported ([8]; 200 mg (22)): 8 AEs
Adverse events: number of SAEs ([8]; 200 mg (22)): 1 SAE
Adverse events: subjects reporting, N (%) ([8]; 200 mg (22)): 4 (18%) subjects
Adverse events: number of AEs reported ([8]; 300 mg (25)): 12 AEs
Adverse events: subjects reporting, N (%) ([8]; 300 mg (25)): 7 (28%) subjects
Adverse events: number of AEs reported ([8]; 400 mg (25)): 23 AEs
Adverse events: number of SAEs ([8]; 400 mg (25)): 1 SAE
Adverse events: subjects reporting, N (%) ([8]; 400 mg (25)): 10 (40%) subjects
1:1 AFL post dose ([8]; 200, 300 and 400 mg): No 1:1 AFL seen post dose in any subject
proarrhythmia ([8]; 200, 300 and 400 mg): absence of proarrhythmia
tolerability ([8]; 200, 300 and 400 mg): well tolerated at all doses
heart rate and systolic blood pressure ([9]; 75 and 100 mg daily doses): increased slightly in most subjects
